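48-hour exposure; five concentrations; linearly interpolated endpoints. TGI marks complete inhibition of growth.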
Key:
Experiment in all cases: NCI tumour cell line growth inhibition, 48 h
UACC-257 melanoma = tested on: UACC-257 melanoma
RPMI-8226 leukemia = tested on: RPMI-8226 leukemia
MCF7 breast = tested on: MCF7 breast
U251 CNS = tested on: U251 CNS
NCI-H460 lung = tested on: NCI-H460 lung
HCT-15 colon = tested on: HCT-15 colon
HCT-116 colon = tested on: HCT-116 colon
TK-10 renal = tested on: TK-10 renal
SNB-19 CNS = tested on: SNB-19 CNS
SNB-75 CNS = tested on: SNB-75 CNS
KM12 colon = tested on: KM12 colon
NCI-H23 lung = tested on: NCI-H23 lung
NCI-H522 lung = tested on: NCI-H522 lung
K-562 leukemia = tested on: K-562 leukemia
CCRF-CEM leukemia = tested on: CCRF-CEM leukemia
HS 578T breast = tested on: HS 578T breast
A549 NSCLC = tested on: A549 NSCLC
LOX IMVI melanoma = tested on: LOX IMVI melanoma
EKVX NSCLC = tested on: EKVX NSCLC
HCC-2998 colon = tested on: HCC-2998 colon
SF-268 CNS = tested on: SF-268 CNS
NCI-H226 lung = tested on: NCI-H226 lung
OVCAR-4 ovarian = tested on: OVCAR-4 ovarian
SK-OV-3 ovarian = tested on: SK-OV-3 ovarian
HL-60(TB) leukemia = tested on: HL-60(TB) leukemia
HOP-62 NSCLC = tested on: HOP-62 NSCLC
DU-145 prostate = tested on: DU-145 prostate
SK-MEL-28 melanoma = tested on: SK-MEL-28 melanoma
MDA-MB-231 breast = tested on: MDA-MB-231 breast
SW-620 colon = tested on: SW-620 colon
A498 renal = tested on: A498 renal
MDA-MB-435 = tested on: MDA-MB-435
T-47D breast = tested on: T-47D breast
HT29 colon = tested on: HT29 colon
IGROV1 ovarian = tested on: IGROV1 ovarian
NCI/ADR-RES ovarian = tested on: NCI/ADR-RES ovarian
MOLT-4 leukemia = tested on: MOLT-4 leukemia
UO-31 renal = tested on: UO-31 renal
OVCAR-3 ovarian = tested on: OVCAR-3 ovarian
PC-3 prostate = tested on: PC-3 prostate
CAKI-1 renal = tested on: CAKI-1 renal
SR leukemia = tested on: SR leukemia
ACHN renal = tested on: ACHN renal
SF-539 CNS = tested on: SF-539 CNS
MDA-N = tested on: MDA-N
UACC-62 melanoma = tested on: UACC-62 melanoma
SF-295 CNS = tested on: SF-295 CNS
OVCAR-8 ovarian = tested on: OVCAR-8 ovarian
HOP-92 NSCLC = tested on: HOP-92 NSCLC
SK-MEL-2 melanoma = tested on: SK-MEL-2 melanoma
SN12C renal = tested on: SN12C renal
SK-MEL-5 melanoma = tested on: SK-MEL-5 melanoma
BT-549 breast = tested on: BT-549 breast
M14 melanoma = tested on: M14 melanoma
786-0 renal = tested on: 786-0 renal
COLO 205 colon = tested on: COLO 205 colon
MALME-3M melanoma = tested on: MALME-3M melanoma
OVCAR-5 ovarian = tested on: OVCAR-5 ovarian
RXF 393 renal = tested on: RXF 393 renal

`CC(=O)Nc1ccc(S(=O)(=O)/N=C2\C=CC(=O)c3ccccc32)cc1` showed a TGI (UACC-257 melanoma) of 12.4 µM, a TGI (RPMI-8226 leukemia) of 25.9 µM and a TGI (MCF7 breast) of 12.2 µM. The TGI (U251 CNS) was 14.2 µM, the TGI (NCI-H460 lung) was 28.5 µM and the TGI (HCT-15 colon) was 16.1 µM. For the same molecule, the TGI (HCT-116 colon) was 22.8 µM, the TGI (TK-10 renal) was 36.9 µM and the TGI (SNB-19 CNS) was 28.3 µM. It also gave a TGI (SNB-75 CNS) of 14.1 µM, a TGI (KM12 colon) of 40.5 µM and a TGI (NCI-H23 lung) of 13.3 µM. The TGI (NCI-H522 lung) was 29 µM, the TGI (K-562 leukemia) was 9.13 µM and the TGI (CCRF-CEM leukemia) was 27.7 µM. It also gave a TGI (HS 578T breast) of 26.1 µM, a TGI (A549 NSCLC) of 29.7 µM and a TGI (LOX IMVI melanoma) of 15.2 µM. It also gave a TGI (EKVX NSCLC) of 22 µM, a TGI (HCC-2998 colon) of 10.7 µM and a TGI (SF-268 CNS) of 17.2 µM. It also gave a TGI (NCI-H226 lung) of 18.1 µM, a TGI (OVCAR-4 ovarian) of 8.6 µM and a TGI (SK-OV-3 ovarian) of 33.8 µM. The TGI (HL-60(TB) leukemia) was 11.2 µM, the TGI (HOP-62 NSCLC) was 22.8 µM and the TGI (DU-145 prostate) was greater than 57.2 µM. For the same molecule, the TGI (SK-MEL-28 melanoma) was 24.4 µM, the TGI (MDA-MB-231 breast) was 10.7 µM and the TGI (SW-620 colon) was 47.6 µM. The TGI (A498 renal) was 21.2 µM, the TGI (MDA-MB-435) was 3.36 µM and the TGI (T-47D breast) was greater than 83 µM. The TGI (HT29 colon) was 33.7 µM, the TGI (IGROV1 ovarian) was 10.7 µM and the TGI (NCI/ADR-RES ovarian) was 22.9 µM. It also gave a TGI (MOLT-4 leukemia) of 1.25 µM, a TGI (UO-31 renal) of 20 µM and a TGI (OVCAR-3 ovarian) of 10.3 µM. For the same molecule, the TGI (PC-3 prostate) was 15.4 µM, the TGI (CAKI-1 renal) was 35.7 µM and the TGI (SR leukemia) was 11.8 µM. It also gave a TGI (ACHN renal) of 16.4 µM, a TGI (SF-539 CNS) of 15.6 µM and a TGI (MDA-N) of 3.59 µM. For the same molecule, the TGI (UACC-62 melanoma) was 12.2 µM, the TGI (SF-295 CNS) was 15.1 µM and the TGI (OVCAR-8 ovarian) was 9.13 µM. It also gave a TGI (HOP-92 NSCLC) of 21.7 µM, a TGI (SK-MEL-2 melanoma) of 32.1 µM and a TGI (SN12C renal) of 11.9 µM. The TGI (SK-MEL-5 melanoma) was 8.7 µM, the TGI (BT-549 breast) was 25.3 µM and the TGI (M14 melanoma) was 11.1 µM. It also gave a TGI (786-0 renal) of 26.4 µM, a TGI (COLO 205 colon) of 26.9 µM and a TGI (MALME-3M melanoma) of 9.66 µM. The TGI (OVCAR-5 ovarian) was 20.6 µM and the TGI (RXF 393 renal) was 15.6 µM.

In the case of `N=C(N)CCNC(=O)C1CCC(N)=N1` (stereo not drawn), the TGI (UACC-257 melanoma) is reported as greater than 81.1 µM, the TGI (RPMI-8226 leukemia) is reported as greater than 100 µM and the TGI (MCF7 breast) is reported as greater than 100 µM. For the same molecule, the TGI (U251 CNS) was greater than 100 µM, the TGI (NCI-H460 lung) was greater than 82.1 µM and the TGI (HCT-15 colon) was greater than 100 µM. The TGI (HCT-116 colon) was greater than 91 µM, the TGI (TK-10 renal) was greater than 90.4 µM and the TGI (SNB-19 CNS) was greater than 100 µM. It also gave a TGI (SNB-75 CNS) of 60.4 µM, a TGI (KM12 colon) greater than 100 µM and a TGI (NCI-H23 lung) greater than 93.3 µM. For the same molecule, the TGI (NCI-H522 lung) was greater than 92.9 µM, the TGI (K-562 leukemia) was greater than 100 µM and the TGI (CCRF-CEM leukemia) was greater than 80.5 µM. For the same molecule, the TGI (HS 578T breast) was 65.5 µM, the TGI (A549 NSCLC) was greater than 61.2 µM and the TGI (LOX IMVI melanoma) was greater than 100 µM. The TGI (EKVX NSCLC) was greater than 89.7 µM, the TGI (HCC-2998 colon) was greater than 36.2 µM and the TGI (SF-268 CNS) was greater than 93 µM. For the same molecule, the TGI (NCI-H226 lung) was greater than 63.8 µM, the TGI (OVCAR-4 ovarian) was 81.3 µM and the TGI (SK-OV-3 ovarian) was greater than 69.3 µM. It also gave a TGI (HL-60(TB) leukemia) greater than 87.4 µM, a TGI (HOP-62 NSCLC) greater than 48.2 µM and a TGI (DU-145 prostate) greater than 65.6 µM. It also gave a TGI (SK-MEL-28 melanoma) greater than 100 µM, a TGI (MDA-MB-231 breast) greater than 79.3 µM and a TGI (SW-620 colon) greater than 100 µM. It also gave a TGI (A498 renal) of 85.9 µM, a TGI (MDA-MB-435) greater than 100 µM and a TGI (T-47D breast) greater than 59.7 µM. It also gave a TGI (HT29 colon) greater than 84.5 µM, a TGI (IGROV1 ovarian) greater than 100 µM and a TGI (NCI/ADR-RES ovarian) greater than 100 µM. For the same molecule, the TGI (MOLT-4 leukemia) was greater than 78.8 µM, the TGI (UO-31 renal) was greater than 80.1 µM and the TGI (OVCAR-3 ovarian) was greater than 41.9 µM. For the same molecule, the TGI (PC-3 prostate) was greater than 64.6 µM, the TGI (CAKI-1 renal) was greater than 100 µM and the TGI (SR leukemia) was greater than 100 µM. It also gave a TGI (ACHN renal) greater than 100 µM, a TGI (SF-539 CNS) greater than 43.2 µM and a TGI (MDA-N) greater than 100 µM. For the same molecule, the TGI (UACC-62 melanoma) was greater than 100 µM, the TGI (SF-295 CNS) was greater than 86.2 µM and the TGI (OVCAR-8 ovarian) was greater than 100 µM. It also gave a TGI (HOP-92 NSCLC) greater than 67.8 µM, a TGI (SK-MEL-2 melanoma) greater than 78.7 µM and a TGI (SN12C renal) of 68.3 µM. It also gave a TGI (SK-MEL-5 melanoma) greater than 61.9 µM, a TGI (BT-549 breast) greater than 100 µM and a TGI (M14 melanoma) of 98.1 µM. It also gave a TGI (786-0 renal) greater than 95.7 µM, a TGI (COLO 205 colon) greater than 59 µM and a TGI (MALME-3M melanoma) greater than 61.6 µM. It also gave a TGI (OVCAR-5 ovarian) greater than 96.6 µM and a TGI (RXF 393 renal) greater than 94.4 µM.

Reference: PubChem BioAssay (NCI)
